# Like-named read-outs stand apart in the source and are kept apart here.
# Columns and labels:
# [1] = test system: broad-leaf dock (RUMOB, Rumex obtusifolius); assay: Greenhouse postemergence herbicidal effect; assay type: in vivo; conditions: for Obs % visual injury: RUMOB; for % visual injury, Obs: 8.75 g/ha
# Text: (§1) Seeds of the desired test plant species were planted in a 90:10% v/v (volume/volume) mixture of PRO-MIX® BX (Premier Tech Horticulture, Quakertown, PA, USA) and PROFILE® GREENS GRADE™ (Profile Products LLC, Buffalo Grove, IL, USA) planting mixture, which typically has a pH of 5.2 to 6.2 and an organic matter content of at least 50 percent, in plastic pots with a surface area of 103.2 square centimeters (cm^2). In some aspects, to ensure good germination and healthy plants, a fungicide treatment and/or other chemical or physical treatment was applied. The plants were grown for 7-36 days (d) in a greenhouse with an approximate 14-hour (h) photo-period which was maintained at about 23° C. during the day and 22° C. during the night. Nutrients and water were added on a regular basis and supplemental lighting was provided with overhead metal halide 1000-Watt lamps as necessary. The plants were employed for testing when they reached the second or third true leaf stage.
# (§2) Emulsifiable concentrates of each of each pyridine carboxylate herbicide (Compound A or Compound B) were prepared at 100 grams acid equivalent per liter (g ae/L). The emulsifiable concentrates also included a safener, cloquintocet-mexyl, at 120 grams active ingredient per liter (g ai/L), unless otherwise noted below. An aliquot of each emulsifiable concentrate was placed in a 25 mL glass vial and diluted with an aqueous mixture of 1.25% (v/v) ACTIROB® B esterified rapeseed oil (Bayer Crop Science, Research Triangle Park, NC, USA) or MSO® Concentrate with LECI-TECH® methylated soybean oil (Loveland Products, Loveland, CO, USA) to obtain concentrated stock solutions at the highest application rate for each herbicide, based upon a 12 milliliter (mL) application volume at a rate of 187 liters per hectare (L/ha). The concentrated stock solutions were further diluted with an aqueous mixture of 1.25% v/v ACTIROB® B or MSO® Concentrate with LECI-TECH® to obtain stock solutions at reduced application rates for each herbicide. Spray solutions of the herbicide combinations (Compound A or Compound B plus ALS herbicide) were prepared by adding weighed amounts or aliquots of the ALS herbicides to the stock solutions of Compound A or Compound B to form 12-mL spray solutions in two- or three-way combinations.
# (§3) The spray solutions were applied to the plant material with an overhead Mandel track sprayer equipped with 8002E nozzles calibrated to deliver 187 L/ha over an application area of 0.503 square meters (m^2) at a spray height of 18 inches (43 centimeters (cm)) above the average plant canopy. Control plants were sprayed in the same manner with the solvent blank. All pyridine carboxylate herbicide (component a) application rates are given as “g ae/ha” and all ALS inhibitor (component b) application rates are given as “g ai/ha.”
# (§4) The treated plants and control plants were placed in a greenhouse as described above and watered by sub-irrigation to prevent wash-off of the test compounds. After 20-22 d, the condition of the test plants as compared with that of the control plants was determined visually and scored on a scale of 0 to 100 percent where 0 corresponds to no injury and 100 corresponds to complete kill.
# [2] = test system: large crabgrass (DIGSA, Digitaria sanguinalis); assay: Greenhouse postemergence herbicidal effect; assay type: in vivo; conditions: DIGSA
# Text: as §1, §2, §3, §4
# [3] = test system: common lambsquarters (CHEAL, Chenopodium album L.); assay: Greenhouse postemergence herbicidal effect; assay type: in vivo; conditions: for Obs % visual injury: CHEAL
# Procedure: as §1, with “In some aspects, to ensure good germination and healthy plants, a fungicide treatment and/or other chemical or physical treatment was applied.” left out
# as §2, §3, §4
# [4] = test system: kochia (KCHSC, Kochia scoparia); assay: Greenhouse postemergence herbicidal effect; assay type: in vivo; conditions: for Obs % visual injury: KCHSC
# Procedure: as §1, with “In some aspects, to ensure good germination and healthy plants, a fungicide treatment and/or other chemical or physical treatment was applied.” left out
# as §2, §3, §4
# [5] = test system: chickweed (STEME, Stellaria media); assay: Greenhouse postemergence herbicidal effect; assay type: in vivo; conditions: for Obs % visual injury: STEME; for % visual injury, Obs: 8.75 g/ha
# Procedure: (§5) The plants were grown for 7-36 days (d) in a greenhouse with an approximate 14-hour (h) photo-period which was maintained at about 23° C. during the day and 22° C. during the night. Nutrients and water were added on a regular basis and supplemental lighting was provided with overhead metal halide 1000-Watt lamps as necessary. The plants were employed for testing when they reached the second or third true leaf stage.
# (§6) The emulsifiable concentrates also included a safener, cloquintocet-mexyl, at 120 grams active ingredient per liter (g ai/L), unless otherwise noted below.
# (§7) Control plants were sprayed in the same manner with the solvent blank. All pyridine carboxylate herbicide (component a) application rates are given as “g ae/ha” and all ALS inhibitor (component b) application rates are given as “g ai/ha.”
# as §4
# [6] = test system: Canadian thistle (CIRAR, Cirsium arvense); assay: Greenhouse postemergence herbicidal effect; assay type: in vivo; conditions: for Obs % visual injury: CIRAR
# Procedure: as §5, §6, §7, §4
# [7] = test system: wild chamomile (MATCH, Matricaria chamomilla); assay: Greenhouse postemergence herbicidal effect; assay type: in vivo
# Procedure: as §5, §6, §7, §4
# [8] = test system: pigweed (AMARE, Amaranthus retroflexus); assay: Greenhouse postemergence herbicidal effect; assay type: in vivo; conditions: for Obs % visual injury: AMARE; for % visual injury, Obs: 8.75 g/ha
# Procedure: as §5, §6, §7, §4
# [9] = test system: wild buckwheat (POLCO, Polygonum convolvulus); assay: Greenhouse postemergence herbicidal effect; assay type: in vivo; conditions: for Obs % visual injury: POLCO; for % visual injury, Obs: 8.75 g/ha
# Procedure: as §5, §6, §7, §4
# [10] = test system: Russian thistle (SASKR, Salsola kali); assay: Greenhouse postemergence herbicidal effect; assay type: in vivo
# Procedure: as §5, §6, §7, §4
# [11] = test system: wild pansy (VIOTR, Viola tricolor); assay: Greenhouse postemergence herbicidal effect; assay type: in vivo; conditions: for Obs % visual injury: VIOTR; for % visual injury, Obs: 8.75 g/ha
# Procedure: as §5, §6, §7, §4
# [12] = test system: ivyleaf morningglory (IPOHE, Ipomoea hederacea); assay: Greenhouse postemergence herbicidal effect; assay type: in vivo; conditions: 8.75 g/ha
# Text: as §1, §2, §3, §4
# [13] = test system: common sunflower (HELAN, Helianthus annuus); assay: Greenhouse postemergence herbicidal effect; assay type: in vivo; conditions: 8.75 g/ha
# Text: as §1, §2, §3, §4
# [14] = test system: velvetleaf (ABUTH, Abutilon theophrasti); assay: Greenhouse postemergence herbicidal effect; assay type: in vivo; conditions: 8.75 g/ha
# Text: as §1, §2, §3, §4
# [15] = test system: soybean (GLXMA, Glycine max); assay: Greenhouse postemergence herbicidal effect; assay type: in vivo; conditions: 8.75 g/ha
# Text: as §1, §2, §3, §4
# [16] = test system: wild mustard (SINAR, Sinapis arvensis); assay: Greenhouse postemergence herbicidal effect; assay type: in vivo
# Procedure: as §5, §6, §7, §4
# [17] = test system: winter rape (BRSNW, Brassica napus); assay: Greenhouse postemergence herbicidal effect; assay type: in vivo
# Procedure: as §5, §6, §7, §4
# spring barley (HORVS) = assay type: in vivo, Hordeum vulgare; conditions: 10 g/ha
# Procedure: as §5, §6, §7, §4
# spring wheat (TRZAS) = assay type: in vivo, Triticum aestivum; conditions: for Obs % visual injury: TRZAS
# Procedure: as §5, §6, §7, §4
compound,measurement,setting,value
"COc1cc(OC)nc(NC(=O)NS(=O)(=O)Cc2ccccc2C(=O)O)n1 [Bensulfuron, bensulfuron]",Obs % visual injury,[1]; Bensulfuron 16 g/ha,60%
same,Obs % visual injury,[2]; Bensulfuron 16 g/ha,0%
same,"% visual injury, Obs",[3]; 16 g/ha,10%
same,Obs % visual injury,[3]; Bensulfuron 16 g/ha,10%
same,"% visual injury, Obs",[4]; 16 g/ha,5%
same,Obs % visual injury,[4]; Bensulfuron 16 g/ha,20%
same,Obs % visual injury,[5]; Bensulfuron 16 g/ha,8%
same,Obs % visual injury,[6]; Bensulfuron 16 g/ha,20%
same,"% visual injury, Obs",[7]; 16 g/ha,38%
same,Obs % visual injury,[8]; Bensulfuron 16 g/ha,20%
same,Obs % visual injury,[9]; Bensulfuron 16 g/ha,80%
same,"% visual injury, Obs",[10]; 16 g/ha,0%
same,Obs % visual injury,[11]; Bensulfuron 16 g/ha,8%
"CCS(=O)(=O)c1nc2ccccn2c1S(=O)(=O)NC(=O)Nc1nc(OC)cc(OC)n1 [Sulfosulfuron, sulfosulfuron]","% visual injury, Obs",[12],78%
same,"% visual injury, Obs",[1],0%
same,"% visual injury, Obs",[13],100%
same,"% visual injury, Obs",[14],30%
same,"% visual injury, Obs",[15],85%
same,"% visual injury, Obs",[3]; 8.75 g/ha,0%
same,% visual injury,[3]; Sulfosulfuron 140 g/ha,43%
same,pest or weed control at 8.75 g/ha,"[4]; Bassia scoparia, post-emergence, 8.75 g/ha, read-out: % visual injury, Obs",0%
same,% visual injury,[4]; Sulfosulfuron 140 g/ha,8%
same,"% visual injury, Obs",[5],53%
same,pest or weed control at 8.75 g/ha,"[6]; Cirsium arvense, post-emergence, 8.75 g/ha, read-out: % visual injury, Obs",5%
same,% visual injury,[6]; Sulfosulfuron 140 g/ha,45%
same,% visual injury,[7]; Sulfosulfuron 140 g/ha,73%
same,"% visual injury, Obs",[8],40%
same,% visual injury,[8]; Sulfosulfuron 140 g/ha,88%
same,% visual injury,[16]; Sulfosulfuron 140 g/ha,99%
same,"% visual injury, Obs",[9],5%
same,% visual injury,[9]; Sulfosulfuron 140 g/ha,83%
same,% visual injury,[17]; Sulfosulfuron 140 g/ha,98%
same,"% visual injury, Obs",[11],55%
flupyrsulfuron,Obs % visual injury,[1]; Flupyrsulfuron 10 g/ha,70%
same,Obs % visual injury,[2]; Flupyrsulfuron 10 g/ha,0%
same,"% visual injury, Obs",spring barley (HORVS),8%
same,"% visual injury, Obs",spring wheat (TRZAS); 10 g/ha,0%
same,Obs % visual injury,spring wheat (TRZAS); Flupyrsulfuron 10 g/ha,15%
same,"% visual injury, Obs",[3]; 10 g/ha,75%
same,Obs % visual injury,[3]; Flupyrsulfuron 10 g/ha,63%
same,"% visual injury, Obs",[4]; 10 g/ha,15%
same,Obs % visual injury,[4]; Flupyrsulfuron 10 g/ha,30%
same,Obs % visual injury,[5]; Flupyrsulfuron 10 g/ha,80%
same,Obs % visual injury,[6]; Flupyrsulfuron 10 g/ha,84%
same,"% visual injury, Obs",[7]; 10 g/ha,83%
same,Obs % visual injury,[8]; Flupyrsulfuron 10 g/ha,97%
same,Obs % visual injury,[9]; Flupyrsulfuron 10 g/ha,91%
same,"% visual injury, Obs",[10]; 10 g/ha,45%
same,Obs % visual injury,[11]; Flupyrsulfuron 10 g/ha,8%
halosulfuron,"% visual injury, Obs",[12],0%
same,"% visual injury, Obs",[1],0%
same,"% visual injury, Obs",[13],100%
same,"% visual injury, Obs",[14],95%
same,"% visual injury, Obs",[15],78%
same,"% visual injury, Obs",[3]; 8.75 g/ha,0%
same,% visual injury,[3]; Halosulfuron 8.75 g/ha,10%
same,"% visual injury, Obs",[4]; 8.75 g/ha,0%
same,% visual injury,[4]; Halosulfuron 8.75 g/ha,15%
same,"% visual injury, Obs",[5],0%
same,"% visual injury, Obs",[6]; 8.75 g/ha,10%
same,% visual injury,[6]; Halosulfuron 8.75 g/ha,40%
same,% visual injury,[7]; Halosulfuron 8.75 g/ha,78%
same,"% visual injury, Obs",[8],40%
same,% visual injury,[8]; Halosulfuron 8.75 g/ha,95%
same,% visual injury,[16]; Halosulfuron 8.75 g/ha,95%
same,"% visual injury, Obs",[9],5%
same,% visual injury,[9]; Halosulfuron 8.75 g/ha,63%
same,% visual injury,[17]; Halosulfuron 8.75 g/ha,88%
same,"% visual injury, Obs",[11],15%
pyriminobac,Obs % visual injury,[1]; Pyriminobac methyl 30 g/ha,65%
same,Obs % visual injury,[2]; Pyriminobac methyl 30 g/ha,0%
same,Obs % visual injury,spring wheat (TRZAS); Pyriminobac methyl 30 g/ha,0%
same,Obs % visual injury,[3]; Pyriminobac methyl 30 g/ha,20%
same,Obs % visual injury,[4]; Pyriminobac methyl 30 g/ha,33%
same,Obs % visual injury,[5]; Pyriminobac methyl 30 g/ha,15%
same,Obs % visual injury,[6]; Pyriminobac methyl 30 g/ha,8%
same,Obs % visual injury,[8]; Pyriminobac methyl 30 g/ha,93%
same,Obs % visual injury,[9]; Pyriminobac methyl 30 g/ha,80%
same,Obs % visual injury,[11]; Pyriminobac methyl 30 g/ha,5%

# — patent publication US12285012B2, “Compositions comprising pyridine carboxylate herbicides with acetolactate synthase (ALS) inhibitor herbicides” (Corteva Agriscience LLC, priority 2018, dated 2025)
